# Test results: US20130101634A1, “COMPOSITIONS AND METHODS FOR REDUCING MICROBIAL OVERGROWTH IN THE SMALL INTESTINES” (DEERLAND ENZYMES, INC., priority 2011, published 2013)
# Assays:
# [1] = system: Bacteroides fragilis; assay: Growth curve (O.D. 600 over time) in nutrient broth; assay type: cell-based; details: 1 mg/ml in nutrient broth, alone or with 1 mg/ml EDTA, 37° C., FIGS. 2, 4, 6
# Description: (§1) Growth Curves Since bacteria grow exponentially, it is useful to plot the logarithm of the relative population size [y=ln(NIN0)] against time. Frozen permanents of each strain were streaked for single colonies using nutrient agar plates warmed prior to use. Single bacterial cells were restreaked on a nutrient agar plate at 37° C. for 24 h to 72 h depending on strain. Cells of several well-grown colonies on the plate were added to 50 ml of nutrient broth with shaking at 37° C. until the culture reached the desired optical density. Ingredients of interest were slowly added while stirring at 37° C. […] Samples were taken at various time points and the optical density of the culture was obtained at 600 nm. All experiments were replicated twice.
# [2] = system: E. coli; assay: as above; assay type: cell-based; details: 1 mg/ml in nutrient broth, alone or with 1 mg/ml EDTA or citrate, 37° C., FIGS. 1, 3, 5
# Description: as §1
Substance,cell growth (O.D. 600 as a function of time) [1],cell growth (O.D. 600 as a function of time) [2]
lysozyme,cell growth is not totally eliminated and cell culture will recover,cell growth is not totally eliminated and cell culture will recover
nisin,cell growth is not totally eliminated and cell culture will recover,cell growth is not totally eliminated and cell culture will recover
